The subject of series [1] is human platelet aggregation. Briefly: Human platelet aggregation inhibitory activity (method of Pharmacological Test 1 in WO 94/21599). The series is classed as cell-based. Particulars: for IC50: read-out: IC50, human platelet aggregation inhibition. As for the experimental part:
(§1) GP IIb/IIIa Antagonistic Activity and Human Platelet Aggregation Inhibitory Activity
Human platelet aggregation inhibitory activity was measured for the compounds according to the present invention. The measurement of the human platelet aggregation activity was carried out according to the method described in Pharmacological Test 1 in WO 94/21599.

A further series has as its target GP IIb/IIIa (Homo sapiens, UniProt P05106+P08514). Nature of the series: GP IIb/IIIa antagonistic activity (method of Pharmacological Test 2 in WO 94/21599). The series is classed as binding. Here is the method:
as §1
GP IIb/IIIa antagonistic activity was measured for the compounds according to the present invention. The measurement of the GP IIb/IIIa antagonistic activity was carried out according to the method described in Pharmacological Test 2 in WO 94/21599.

Another series is described as follows: Oral absorption in rats. Particulars: data not shown. The format is in vivo. The source says:
Therefore, any of the compounds, wherein R^9 represents an alkyl group or a hydrogen atom, can be used in the treatment of the above diseases.

The target in series [2] is T1, integrin αvβ3 (vitronectin receptor purified from the human placenta) (Homo sapiens, UniProt P05106+P06756).
T1 construct: a vitronectin receptor (protein content: 118 μg/ml) purified from the human placenta; from tissue; host or cells: human placenta
Briefly: αvβ3 binding assay (vitronectin-vitronectin receptor binding assay). The conditions noted are these: for IC50: vitronectin receptor from human placenta, read-out: IC50, inhibition of binding between vitronectin and vitronectin receptor (αvβ3 binding inhibitory activity). Here is the method: Integrin αvβ3 antagonistic activity was measured for the compounds according to the present invention in a vitronectin-vitronectin receptor binding assay system in accordance with the method of Kouns et al. (W. C. Kouns, D. Kirchhofer, P. Hadvary, A. Edenhofer, T. Weller, G. Pfenninger, H. R. Baumgartner, L. K. Jennings and B. Steiner, Blood, 8, 2539-2547 (1992)).
Specifically, a vitronectin receptor (protein content: 118 μg/ml) purified from the human placenta in accordance with the method of Pytela et al. (R. Pytela, M. D. Pierschbacher, S. Argraves, S. Suzuki, and E. Ruoslahti, Method in Enzymology, 144, 475-489 (1987)) was diluted 50 times with TBS (20 mM Tris-HCl, 150 mM NaCl, 1 mM CaCl2, 1 mM MgCl2, pH 7.4), and distributed and coated on wells (50 μl/well) of a plate (Maxisorp, Nunc, 96 well Immuno Plate). The plate was then allowed to stand at 4° C. for 1 day, washed twice with TBS (200 μl/well), and then subjected to blocking with TBS (150 μl/well) containing 1% bovine serum albumin (SIGMA) at 4° C. overnight. After washing twice with TBS (200 μl/well), 50 μl of vitronectin (CALBIOCHEM) adjusted to 0.2 μg/ml by the addition of TBS (TBS-Tween) containing 0.01% Tween-20 was mixed with 50 μl of each test compound adjusted to each concentration in wells, and a reaction was allowed to proceed at room temperature for 4 hr. After the completion of the reaction, the wells were washed five times with TBS-Tween. A solution prepared by diluting anti-vitronectin rabbit antiserum (CHEMICON) 500 times with TBS-Tween was added as a primary antibody in an amount of 50 μl per well, and a reaction was allowed to proceed at room temperature for 1.5 hr. After washing five times with 200 μl/well of TBS-Tween, a peroxidase (POD)-labeled anti-rabbit IgG antibody solution (CAPPEL) diluted 500 times with TBS-Tween was added as a secondary antibody in an amount of 50 μl/well, and a reaction was allowed to proceed at room temperature for 1.5 hr. After washing five times with TBS-Tween (200 μl /well), ABTS (2,2′-azino-bis(3-ethylbenzthiazoline-6-sulfonic acid), SIGMA) was adjusted to 1 mg/ml by the addition of a ten-fold diluted POD-buffer (ZYMED), and added in an amount of 50 μl/well, and a reaction was allowed to proceed for 5 to 10 min. A 0.1 M citric acid buffer (pH 4.3) containing 0.05% NaN3 was added in an amount of 50 μl/well to stop the reaction, followed by the measurement of the absorbance at 415 nm with a microplate reader (MTP 32, Corona Electric) (reference: 675 nm). The total binding was defined as the absorbance after a reaction using 50 μl of TBS-Tween instead of the test compound, and the non-specific binding (100% inhibition) was defined as the absorbance after a reaction using 50 μl of TBS-Tween containing 2×10^−3 M RGDS. The inhibition was calculated by the following equation: [formula]
(§2) IC50 was determined from a primary regression line of the logarithm of each concentration of the test compound and the logarithm of (100−inhibition)/inhibition.

Series [3] has as its target T2, integrin α5β1 (fibronectin receptor purified from the human placenta) (Homo sapiens, UniProt P05556+P08648).
T2 construct: a fibronectin receptor (protein content: 52.1 μg/ml) purified from the human placenta; from tissue; host or cells: human placenta
Nature of the series: α5β1 binding assay (fibronectin-fibronectin receptor binding assay). The conditions noted are these: read-out: IC50, integrin α5β1 antagonistic activity (fibronectin-fibronectin receptor binding). As for the experimental part: The plate was then allowed to stand at 4° C. for one day, washed twice with TBS (200 μl/well), and then subjected to blocking with TBS (150 μl/well) containing 3% skim milk (DIFCO) at 4° C. overnight. […] After the completion of the reaction, the wells were washed five times with TBS-Tween. A solution prepared by diluting a peroxidase-labeled fibronectin antibody (CAPPEL) 500 times with TBS-Tween was added in an amount of 50 μl per well, and a reaction was allowed to proceed at room temperature for 1.5 hr. After washing five times with TBS-Tween (200 μl/well), ABTS (SIGMA) adjusted to 1 mg/ml by the addition of a ten-fold diluted POD-buffer (ZYMED) was added in an amount of 50 μl/well, and a reaction was allowed to proceed for 5 to 10 min. A 0.1 M citric acid buffer (pH 4.3) containing 0.05% NaN3 was added in an amount of 50 μl/well to stop the reaction, followed by the measurement of the absorbance at 415 nm with a microplate reader (MTP 32, Corona Electric) (reference: 675 nm). […] The inhibition was calculated by the following equation: [formula]
as §2

SMILES strings stand for the structures.

T1 sequence (P06756 31-889 limits assumed): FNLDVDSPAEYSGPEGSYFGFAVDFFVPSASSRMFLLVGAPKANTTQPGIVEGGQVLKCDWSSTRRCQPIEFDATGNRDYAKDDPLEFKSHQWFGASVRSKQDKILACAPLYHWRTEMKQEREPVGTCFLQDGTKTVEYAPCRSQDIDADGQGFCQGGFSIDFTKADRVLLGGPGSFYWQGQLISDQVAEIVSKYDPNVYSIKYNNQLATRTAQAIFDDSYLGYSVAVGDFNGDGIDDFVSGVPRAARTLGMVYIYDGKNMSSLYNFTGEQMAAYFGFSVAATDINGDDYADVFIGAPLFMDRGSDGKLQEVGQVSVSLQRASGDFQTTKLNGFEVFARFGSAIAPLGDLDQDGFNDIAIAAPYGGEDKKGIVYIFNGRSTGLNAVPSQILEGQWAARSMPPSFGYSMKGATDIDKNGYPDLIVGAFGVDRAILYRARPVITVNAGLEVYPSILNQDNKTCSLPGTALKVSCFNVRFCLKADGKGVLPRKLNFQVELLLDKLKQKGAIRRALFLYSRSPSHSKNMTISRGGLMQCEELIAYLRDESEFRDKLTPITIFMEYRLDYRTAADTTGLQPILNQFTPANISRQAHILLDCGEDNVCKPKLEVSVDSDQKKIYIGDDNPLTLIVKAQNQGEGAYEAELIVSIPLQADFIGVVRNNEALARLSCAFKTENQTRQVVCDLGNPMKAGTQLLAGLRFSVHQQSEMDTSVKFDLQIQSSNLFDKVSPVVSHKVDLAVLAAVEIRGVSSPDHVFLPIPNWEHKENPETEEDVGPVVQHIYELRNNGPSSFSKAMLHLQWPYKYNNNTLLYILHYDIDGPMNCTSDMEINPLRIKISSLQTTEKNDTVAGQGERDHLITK
T1 sequence (P06756 891-1048 partner limits assumed): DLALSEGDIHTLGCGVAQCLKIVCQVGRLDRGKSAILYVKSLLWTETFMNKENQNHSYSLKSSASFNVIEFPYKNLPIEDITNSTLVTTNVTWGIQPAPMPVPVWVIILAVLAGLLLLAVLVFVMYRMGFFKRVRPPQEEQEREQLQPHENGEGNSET
T1 sequence (P05106 27-788): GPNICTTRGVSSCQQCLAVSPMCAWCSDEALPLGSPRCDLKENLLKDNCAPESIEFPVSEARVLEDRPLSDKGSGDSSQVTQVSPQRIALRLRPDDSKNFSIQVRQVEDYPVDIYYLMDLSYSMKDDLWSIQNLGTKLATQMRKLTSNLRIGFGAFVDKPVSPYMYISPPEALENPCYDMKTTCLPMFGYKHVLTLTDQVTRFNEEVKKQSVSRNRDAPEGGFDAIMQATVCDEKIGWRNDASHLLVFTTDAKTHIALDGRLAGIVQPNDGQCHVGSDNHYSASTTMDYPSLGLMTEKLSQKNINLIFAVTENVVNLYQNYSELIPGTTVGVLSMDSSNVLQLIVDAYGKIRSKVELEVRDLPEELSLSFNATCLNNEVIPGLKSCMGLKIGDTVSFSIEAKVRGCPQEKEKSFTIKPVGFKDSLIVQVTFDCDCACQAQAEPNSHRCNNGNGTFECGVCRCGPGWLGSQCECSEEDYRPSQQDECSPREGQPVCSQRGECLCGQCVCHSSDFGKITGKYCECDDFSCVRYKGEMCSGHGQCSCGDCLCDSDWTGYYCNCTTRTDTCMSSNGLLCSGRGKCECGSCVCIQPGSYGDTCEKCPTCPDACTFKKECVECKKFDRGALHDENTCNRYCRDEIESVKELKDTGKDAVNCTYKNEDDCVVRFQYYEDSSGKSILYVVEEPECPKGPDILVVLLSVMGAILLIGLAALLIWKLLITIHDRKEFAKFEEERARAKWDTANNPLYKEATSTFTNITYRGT
Sequence of GP IIb/IIIa (P08514 32-887 limits assumed): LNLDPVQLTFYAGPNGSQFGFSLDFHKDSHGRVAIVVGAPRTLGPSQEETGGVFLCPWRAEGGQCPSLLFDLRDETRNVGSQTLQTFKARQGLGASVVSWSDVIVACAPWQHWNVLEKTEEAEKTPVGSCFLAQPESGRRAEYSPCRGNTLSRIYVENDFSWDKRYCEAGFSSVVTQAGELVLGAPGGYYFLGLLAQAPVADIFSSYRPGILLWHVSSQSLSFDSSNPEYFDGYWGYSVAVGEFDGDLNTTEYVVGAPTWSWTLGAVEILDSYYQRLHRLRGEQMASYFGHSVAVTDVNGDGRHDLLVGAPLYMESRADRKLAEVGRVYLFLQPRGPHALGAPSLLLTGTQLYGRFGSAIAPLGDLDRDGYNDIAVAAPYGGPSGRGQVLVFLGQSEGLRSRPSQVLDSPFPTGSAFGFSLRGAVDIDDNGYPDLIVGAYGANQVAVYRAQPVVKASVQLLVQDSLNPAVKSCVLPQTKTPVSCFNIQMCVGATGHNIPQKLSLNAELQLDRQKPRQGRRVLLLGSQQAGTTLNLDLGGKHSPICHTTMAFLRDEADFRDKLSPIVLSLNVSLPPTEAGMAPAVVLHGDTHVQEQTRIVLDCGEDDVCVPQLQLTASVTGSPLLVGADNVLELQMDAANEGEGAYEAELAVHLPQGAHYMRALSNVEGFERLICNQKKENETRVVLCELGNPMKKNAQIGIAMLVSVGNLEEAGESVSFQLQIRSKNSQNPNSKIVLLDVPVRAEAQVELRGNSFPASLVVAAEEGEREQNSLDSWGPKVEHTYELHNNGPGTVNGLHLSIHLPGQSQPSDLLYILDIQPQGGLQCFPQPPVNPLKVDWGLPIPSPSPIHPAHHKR
Sequence of GP IIb/IIIa (P08514 891-1039 partner limits assumed): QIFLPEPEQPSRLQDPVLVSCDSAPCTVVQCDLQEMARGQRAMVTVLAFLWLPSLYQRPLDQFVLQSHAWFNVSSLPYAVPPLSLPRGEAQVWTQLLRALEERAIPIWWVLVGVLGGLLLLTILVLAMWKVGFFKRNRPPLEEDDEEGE
Sequence of GP IIb/IIIa (P05106 27-788): as the sequence (P05106 27-788) above
T2 sequence (P08648 42-894 limits assumed): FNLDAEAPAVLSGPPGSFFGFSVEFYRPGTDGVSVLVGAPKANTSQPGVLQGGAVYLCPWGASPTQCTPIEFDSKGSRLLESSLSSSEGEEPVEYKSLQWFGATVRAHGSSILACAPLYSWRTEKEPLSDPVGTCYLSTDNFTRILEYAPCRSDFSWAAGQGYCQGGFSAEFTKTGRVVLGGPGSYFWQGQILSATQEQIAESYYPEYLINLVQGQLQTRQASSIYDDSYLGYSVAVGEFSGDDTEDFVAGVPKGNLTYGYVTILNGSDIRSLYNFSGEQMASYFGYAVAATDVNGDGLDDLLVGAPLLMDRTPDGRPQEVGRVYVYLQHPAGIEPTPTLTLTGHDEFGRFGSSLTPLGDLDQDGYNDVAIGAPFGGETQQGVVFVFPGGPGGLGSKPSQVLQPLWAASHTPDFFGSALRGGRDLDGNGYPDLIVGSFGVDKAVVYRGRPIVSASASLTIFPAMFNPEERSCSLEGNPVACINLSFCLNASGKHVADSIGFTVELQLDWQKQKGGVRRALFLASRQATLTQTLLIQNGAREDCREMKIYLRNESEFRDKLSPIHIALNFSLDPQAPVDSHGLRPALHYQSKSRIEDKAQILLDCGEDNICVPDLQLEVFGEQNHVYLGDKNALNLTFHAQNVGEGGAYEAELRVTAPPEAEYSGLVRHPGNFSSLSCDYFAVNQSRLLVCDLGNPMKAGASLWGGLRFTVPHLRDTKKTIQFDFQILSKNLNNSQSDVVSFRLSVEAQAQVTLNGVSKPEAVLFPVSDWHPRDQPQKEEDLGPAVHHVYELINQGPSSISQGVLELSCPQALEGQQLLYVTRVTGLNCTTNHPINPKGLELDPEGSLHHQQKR
T2 sequence (P08648 895-1049 partner limits assumed): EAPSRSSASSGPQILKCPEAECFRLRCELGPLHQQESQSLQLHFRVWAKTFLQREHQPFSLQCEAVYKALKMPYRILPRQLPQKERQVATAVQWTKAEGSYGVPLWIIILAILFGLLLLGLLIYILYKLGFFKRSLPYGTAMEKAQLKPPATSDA
T2 sequence (P05556 21-798): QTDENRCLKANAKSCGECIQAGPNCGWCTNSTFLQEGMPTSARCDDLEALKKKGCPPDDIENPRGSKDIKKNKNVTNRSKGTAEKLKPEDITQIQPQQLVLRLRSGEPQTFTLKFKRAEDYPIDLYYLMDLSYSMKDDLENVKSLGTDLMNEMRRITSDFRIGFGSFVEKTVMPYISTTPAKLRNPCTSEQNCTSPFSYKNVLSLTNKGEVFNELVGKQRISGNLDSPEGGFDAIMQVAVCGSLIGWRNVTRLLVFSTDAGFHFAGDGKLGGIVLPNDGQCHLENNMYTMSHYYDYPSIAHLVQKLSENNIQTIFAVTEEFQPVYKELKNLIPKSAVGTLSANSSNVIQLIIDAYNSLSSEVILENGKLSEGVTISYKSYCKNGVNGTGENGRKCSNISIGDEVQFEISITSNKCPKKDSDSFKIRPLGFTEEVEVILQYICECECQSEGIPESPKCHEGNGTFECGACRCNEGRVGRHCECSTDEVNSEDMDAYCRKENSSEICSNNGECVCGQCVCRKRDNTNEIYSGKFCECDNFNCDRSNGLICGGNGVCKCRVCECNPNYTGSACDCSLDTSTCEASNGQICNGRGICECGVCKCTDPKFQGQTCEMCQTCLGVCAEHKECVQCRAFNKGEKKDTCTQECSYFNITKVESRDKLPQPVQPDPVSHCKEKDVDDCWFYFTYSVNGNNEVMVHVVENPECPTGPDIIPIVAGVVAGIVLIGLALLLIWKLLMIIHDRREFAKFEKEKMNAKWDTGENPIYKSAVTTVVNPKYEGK

For `CC1CN(c2ccc(C(=O)NC[C@H](NS(=O)(=O)c3ccccc3)C(=O)O)cc2)CCN1C1=NCCCN1` (stereo partly drawn) [Example 9, (2S)-Benzenesulfonylamino-3-[4-{3-methyl-4-(1,4,5,6-tetrahydropyrimidin-2-yl)-piperazin-1-yl}-benzoylamino]-propionic acid], in series [1], the “human platelet aggregation inhibition (in words)” value is listed as “very strongly inhibited human platelet aggregation” and the IC50 (in general, the concentration that inhibits the measured activity by half) worked out at 50 nM.

Take `Cc1cc(C)c(S(=O)(=O)N[C@@H](CNC(=O)c2ccc(N3CCN(c4ncccn4)CC3)c(F)c2)C(=O)O)c(C)c1` [Example 82, 3-[3-Fluoro-4-{4-(pyrimidin-2-yl)-piperazin-1-yl}-benzoylamino]-(2S)-(2,4,6-trimethyl-benzenesulfonylamino)-propionic Acid]: the “GP IIb/IIIa antagonistic activity (in words)” value at GP IIb/IIIa is given as “extremely high GP IIb/IIIa antagonistic activity”.

For `O=C(NC[C@H](NS(=O)(=O)c1ccccc1)C(=O)O)c1ccc(N2CCCN(c3ncccn3)CC2)cc1` [Example 5, (2S)-Benzenesulfonylamino-3-[4-{4-(pyrimidin-2-yl) -[1,4]diazepan-1-yl}-benzoylamino]-propionic acid], in “Oral absorption in rats”, the oral absorption entry was “excellent oral absorption”.

With `O=C(NC[C@H](NS(=O)(=O)c1ccccc1)C(=O)O)c1ccc(N2CCN(C3=NCCCN3)CC2)cc1Cl` [Example 62, (2S)-Benzenesulfonylamino-3-[2-chloro-4-{4-(1,4,5,6-tetrahydropyrimidin-2-yl)-piperazin-1-yl}-benzoylamino]-propionic Acid], the IC50 at GP IIb/IIIa was ≤ 0.2 nM.

As for `C[C@H]1CN(c2ccc(C(=O)NC[C@H](NS(=O)(=O)c3ccccc3)C(=O)O)cc2F)CCN1C1=NCCCN1` [Example 72, (2S)-Benzenesulfonylamino-3-[3-fluoro-4-{(3S)-methyl-4-(1,4,5,6-tetrahydropyrimidin-2-yl)-piperazin-1-yl}-benzoylamino]-propionic Acid], in series [2], the “integrin αvβ3 antagonistic activity (in words)” value is reported as “high integrin αvβ3 antagonistic activity”. In addition, at GP IIb/IIIa, the “GP IIb/IIIa antagonistic activity (in words)” value is reported as “extremely high GP IIb/IIIa antagonistic activity” and the half-maximal inhibitory concentration (IC50) was ≤ 0.2 nM.

For `N=C(N)N1CCN(c2ccc(C(=O)NC[C@H](NS(=O)(=O)c3ccccc3)C(=O)O)cc2)CC1` [Example 34, (2S)-Benzenesulfonylamino-3-[4-{4-(amidino)-piperazin-1-yl}-benzoylamino]-propionic Acid], in series [1], the “human platelet aggregation inhibition (in words)” value is on record as “very strongly inhibited human platelet aggregation” and the IC50 stood at 38 nM.

As to `Nc1c(N2CCN(C3=NCCCN3)CC2)ccc(C(=O)NC[C@H](NS(=O)(=O)c2ccccc2)C(=O)O)c1Cl` [Example 65, 3-[3-Amino-2-chloro-4-{4-(1,4,5,6-tetrahydropyrimidin-2-yl)-piperazin-1-yl}-benzoylamino]-(2S)-benzenesulfonylamino-propionic Acid], in series [2], the “integrin αvβ3 antagonistic activity (in words)” value is “high integrin αvβ3 antagonistic activity” and the concentration for half-maximal inhibition (IC50) worked out at 6.3 nM. For the same compound, the “GP IIb/IIIa antagonistic activity (in words)” value on GP IIb/IIIa was “extremely high GP IIb/IIIa antagonistic activity”.

With `O=C(NC[C@H](NS(=O)(=O)c1ccccc1)C(=O)O)c1ccc(N2CCCN(C3=NCCCN3)CC2)cc1` [Example 6, (2S)-Benzenesulfonylamino-3-[4-{4-(1,4,5,6-tetrahydropyrimidin-2-yl)-[1,4]diazepan-1-yl}-benzoylamino]-propionic acid], in series [1], the “human platelet aggregation inhibition (in words)” value is “very strongly inhibited human platelet aggregation” and the 50% inhibitory concentration (IC50) came to 50 nM.

For `O=C(NC[C@H](NS(=O)(=O)c1ccccc1)C(=O)O)c1ccc(N2CCN(C3=NCCCN3)CC2)cc1F` [Example 56, (2S)-Benzenesulfonylamino-3-[2-fluoro-4-{4-(1,4,5,6-tetrahydropyrimidin-2-yl)-piperazin-1-yl}-benzoylamino]-propionic Acid], the IC50 against GP IIb/IIIa was ≤ 0.2 nM.

As for `Cc1cc(C)c(S(=O)(=O)N[C@@H](CNC(=O)c2ccc(N3CCN(C4=NCCCN4)CC3)c(F)c2)C(=O)O)c(C)c1` [Example 83, 3-[3-Fluoro-4-{4-(1,4,5,6-tetrahydropyrimidin-2-yl)-piperazin-1-yl}-benzoylamino]-(2S)-(2,4,6-trimethyl-benzenesulfonylamino)-propionic Acid], the figures for the IC50 in series [3] and in series [2] were 13 µM and 5.8 nM, respectively.

Consider `O=C(NC[C@H](NS(=O)(=O)c1ccccc1)C(=O)O)c1ccc(N2CCN(C3=NCCCN3)CC2)c(Cl)c1` [Example 59, (2S)-Benzenesulfonylamino-3-[3-chloro-4-{4-(1,4,5,6-tetrahydropyrimidin-2-yl)-piperazin-1-yl}-benzoylamino]-propionic Acid], for which the results for the IC50 (in series [3]; in series [2]; against GP IIb/IIIa) were 63 µM, 3.5 nM and ≤ 0.2 nM, respectively.

Turning to `C[C@@H]1CN(c2ccc(C(=O)NC[C@H](NS(=O)(=O)c3ccccc3)C(=O)O)cc2)CCN1C1=NCCCN1` [Example 12, (2S)-Benzenesulfonylamino-3-[4-{(3R)-methyl-4-(1,4,5,6-tetrahydropyrimidin-2-yl)-piperazin-1-yl}-benzoylamino]-propionic acid], the “human platelet aggregation inhibition (in words)” value in series [1] is “very strongly inhibited human platelet aggregation”.

These data come from patent US6451800B1, “Phenylpiperazine derivatives as integrin αvβ3 antagonists” (Meiji Seika Kaisha, Ltd., priority 1998, dated 2002).
